Test results as given in PubChem BioAssay AID256 (DTP/NCI, 2004).
Several values for one entry are separate records, joined by “and”; a condition that tells them apart may be missing. Identical values can stand only once. Toxic doses and inconclusive results are not listed. Rule for the calls: active = survival T/C of 150% or more; inactive = T/C below 125% in these data.

Tested on: CD2F1 mice, L1210 leukemia ip, survival T/C
Experiment: NCI In Vivo Anticancer Drug Screen. Data for tumor model L1210 Leukemia (intraperitoneal) in CD2F1 (CDF1) mice
Conditions: higher = longer survival
Summary of the method: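 Ratio T/C, where T is the treated-group value and C the vehicle-dosed control value, from mice implanted with a transplantable tumor.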

[1] = endpoint: mean survival time, dose: 100.0 mg/kg/injection, schedule: Q04DX002 (ip), vehicle: saline with Tween-80
[2] = endpoint: mean survival time, dose: 200.0 mg/kg/injection, schedule: Q04DX002 (ip), vehicle: saline with Tween-80
[3] = endpoint: mean survival time, dose: 400.0 mg/kg/injection, schedule: Q04DX002 (ip), vehicle: saline with Tween-80
[4] = endpoint: mean survival time, dose: 100.0 mg/kg/injection, schedule: Q01DX001 (ip), vehicle: saline with Tween-80
[5] = endpoint: mean survival time, dose: 200.0 mg/kg/injection, schedule: Q01DX001 (ip), vehicle: saline with Tween-80
[6] = endpoint: mean survival time, dose: 400.0 mg/kg/injection, schedule: Q01DX001 (ip), vehicle: saline with Tween-80
[7] = endpoint: mean survival time, dose: 100.0 mg/kg/injection, schedule: Q04DX003 (ip), vehicle: saline with Tween-80
[8] = endpoint: mean survival time, dose: 200.0 mg/kg/injection, schedule: Q04DX003 (ip), vehicle: saline with Tween-80
[9] = endpoint: mean survival time, dose: 400.0 mg/kg/injection, schedule: Q04DX003 (ip), vehicle: saline with Tween-80
[10] = endpoint: mean survival time, dose: 100.0 mg/kg/injection, schedule: Q01DX009 (ip), vehicle: saline with Tween-80
[11] = endpoint: mean survival time, dose: 200.0 mg/kg/injection, schedule: Q01DX009 (ip), vehicle: saline with Tween-80

Measured: T/C

COc1ccc(COC(=O)Oc2ccccc2)cc1OC
inactive: [1] 93 % of control | [2] 101 % of control | [3] 96 % of control

CC(C)c1oc(=O)cc2c1C(O)C1OC(=O)C3(C)C(O)C4OC4C2(C)C13 (configuration not stated) (tested in a mixture with another compound)
inactive: [1] 105 % of control

CC(C)(SCC(N)C(=O)O)c1ccc(-c2ccccc2)cc1 (configuration not stated)
inactive: [4] 88 % of control | [5] 86 % of control | [6] 91 % of control

Fc1ccc2nc(C(F)(F)F)cc(Br)c2c1
inactive: [7] 103 % of control | [8] 98 % of control | [9] 101 % of control

CCCCCCCCCCCCNC(=O)c1cc[n+](Cc2ccc(Cl)c(Cl)c2)cc1
inactive: [7] 103 % of control | [8] 96 % of control | [9] 94 % of control

[CH3][Sn]([CH3])([Br])[CH2]CCCBr
inactive: endpoint: mean survival time, dose: 0.39 mg/kg/injection, schedule: Q01DX009 (ip), vehicle: saline 90 % of control | endpoint: mean survival time, dose: 0.78 mg/kg/injection, schedule: Q01DX009 (ip), vehicle: saline 94 % of control | endpoint: mean survival time, dose: 1.56 mg/kg/injection, schedule: Q01DX009 (ip), vehicle: saline 92 % of control | endpoint: mean survival time, dose: 6.25 mg/kg/injection, schedule: Q01DX009 (ip), vehicle: saline 98 % of control | endpoint: mean survival time, dose: 12.5 mg/kg/injection, schedule: Q01DX009 (ip), vehicle: saline 91 % of control

C[CH2][Pb]([Cl])([CH2]C)[CH2]C
inactive: endpoint: mean survival time, dose: 1.56 mg/kg/injection, schedule: Q01DX009 (ip), vehicle: other 103 % of control | endpoint: mean survival time, dose: 3.12 mg/kg/injection, schedule: Q01DX009 (ip), vehicle: other 100 % of control | endpoint: mean survival time, dose: 6.25 mg/kg/injection, schedule: Q01DX009 (ip), vehicle: other 90 % of control

CCCCCCCCCCCCCCCCCCNC(=S)NCCCCCCCCCCCCCCCCCC
inactive: endpoint: mean survival time, dose: 12.5 mg/kg/injection, schedule: Q01DX009 (ip), vehicle: saline with Tween-80 97 % of control | endpoint: mean survival time, dose: 25.0 mg/kg/injection, schedule: Q01DX009 (ip), vehicle: saline with Tween-80 98 % of control | endpoint: mean survival time, dose: 50.0 mg/kg/injection, schedule: Q01DX009 (ip), vehicle: saline with Tween-80 90 % of control and 98 % of control | [10] 90 % of control

O=C(O)c1cccc2ccc(F)cc12
inactive: endpoint: median survival time, dose: 50.0 mg/kg/injection, schedule: Q04DX002 (ip), vehicle: saline with Tween-80 100 % of control | endpoint: median survival time, dose: 100.0 mg/kg/injection, schedule: Q04DX002 (ip), vehicle: saline with Tween-80 100 % of control | endpoint: median survival time, dose: 200.0 mg/kg/injection, schedule: Q04DX002 (ip), vehicle: saline with Tween-80 100 % of control | endpoint: median survival time, dose: 400.0 mg/kg/injection, schedule: Q04DX002 (ip), vehicle: saline with Tween-80 88 % of control

CC(C)N1CCc2cc3c(cc2C1)OCO3
inactive: endpoint: mean survival time, dose: 75.0 mg/kg/injection, schedule: Q01DX001 (ip), vehicle: saline 100 % of control | endpoint: mean survival time, dose: 100.0 mg/kg/injection, schedule: Q01DX001 (ip), vehicle: saline 100 % of control

OC(CCc1ccccc1)(C(F)(F)Cl)C(F)(F)Cl
inactive: [7] 98 % of control | [8] 89 % of control | [9] 92 % of control

Cc1nc(C)c(Br)s1
inactive: endpoint: mean survival time, dose: 25.0 mg/kg/injection, schedule: Q04DX003 (ip), vehicle: saline 112 % of control | endpoint: mean survival time, dose: 50.0 mg/kg/injection, schedule: Q04DX003 (ip), vehicle: saline 104 % of control | endpoint: mean survival time, dose: 100.0 mg/kg/injection, schedule: Q04DX003 (ip), vehicle: saline 106 % of control

N#CC1CC2C=CC1C2 (configuration not stated)
inactive: endpoint: mean survival time, dose: 5.0 mg/kg/injection, schedule: Q01DX009 (ip), vehicle: saline 98 % of control | endpoint: mean survival time, dose: 5.0 mg/kg/injection, schedule: Q04DX003 (ip), vehicle: saline 95 % of control | endpoint: mean survival time, dose: 10.0 mg/kg/injection, schedule: Q01DX009 (ip), vehicle: saline 98 % of control | endpoint: mean survival time, dose: 10.0 mg/kg/injection, schedule: Q04DX003 (ip), vehicle: saline 97 % of control | endpoint: mean survival time, dose: 20.0 mg/kg/injection, schedule: Q01DX009 (ip), vehicle: saline 87 % of control | endpoint: mean survival time, dose: 20.0 mg/kg/injection, schedule: Q04DX003 (ip), vehicle: saline 100 % of control

CC1(C)CC(=O)C2OC2(C)C1 (configuration not stated)
inactive: [10] 100 % of control | [7] 95 % of control | [11] 97 % of control | [8] 103 % of control | endpoint: mean survival time, dose: 400.0 mg/kg/injection, schedule: Q01DX009 (ip), vehicle: saline with Tween-80 96 % of control | [9] 97 % of control

CCN(CC)C(=S)Nc1ccc(Cl)cc1
inactive: [1] 102 % of control | [2] 102 % of control | [3] 102 % of control

O=C(C[n+]1ccccc1)CC(O)(C(F)(F)F)C(F)(F)F
inactive: [10] 105 % of control | [11] 103 % of control

O=C(CCCCCCC(=O)ON1C(=O)CCC1=O)ON1C(=O)CCC1=O
inactive: endpoint: median survival time, dose: 25.0 mg/kg/injection, schedule: Q01DX009 (ip), vehicle: saline with Tween-80 102 % of control | endpoint: median survival time, dose: 50.0 mg/kg/injection, schedule: Q01DX009 (ip), vehicle: saline with Tween-80 102 % of control | endpoint: median survival time, dose: 100.0 mg/kg/injection, schedule: Q01DX009 (ip), vehicle: saline with Tween-80 103 % of control | endpoint: median survival time, dose: 200.0 mg/kg/injection, schedule: Q01DX009 (ip), vehicle: saline with Tween-80 102 % of control

CCC(=O)OC1(c2ccccc2)CCN(C/C=C/c2ccccc2[N+](=O)[O-])CC1
inactive: endpoint: median survival time, dose: 12.5 mg/kg/injection, schedule: Q04DX003 (ip), vehicle: saline with Tween-80 100 % of control | endpoint: median survival time, dose: 25.0 mg/kg/injection, schedule: Q04DX003 (ip), vehicle: saline with Tween-80 88 % of control | endpoint: median survival time, dose: 50.0 mg/kg/injection, schedule: Q04DX003 (ip), vehicle: saline with Tween-80 100 % of control | endpoint: median survival time, dose: 100.0 mg/kg/injection, schedule: Q04DX003 (ip), vehicle: saline with Tween-80 100 % of control

N#CCCCCCCn1cnc2c(N)ncnc21
inactive: endpoint: mean survival time, dose: 50.0 mg/kg/injection, schedule: Q04DX002 (ip), vehicle: saline with Tween-80 102 % of control | [4] 97 % of control | [1] 105 % of control | [5] 97 % of control | [2] 90 % of control

CC1=Nc2ccccc2N2C1=CC1=C(C(=O)c3cc4ccccc4cc3C1=O)C2C (configuration not stated)
inactive: endpoint: mean survival time, dose: 12.5 mg/kg/injection, schedule: Q04DX003 (ip), vehicle: saline with Tween-80 101 % of control | endpoint: mean survival time, dose: 25.0 mg/kg/injection, schedule: Q04DX003 (ip), vehicle: saline with Tween-80 122 % of control | endpoint: mean survival time, dose: 50.0 mg/kg/injection, schedule: Q04DX003 (ip), vehicle: saline with Tween-80 101 % of control | endpoint: mean survival time, dose: 200.0 mg/kg/injection, schedule: Q04DX003 (ip), vehicle: saline 94 % of control | endpoint: mean survival time, dose: 400.0 mg/kg/injection, schedule: Q04DX003 (ip), vehicle: saline 90 % of control

CC(=O)Nc1cccc(/C=C/c2ccc([N+](=O)[O-])cc2)c1
inactive: endpoint: mean survival time, dose: 100.0 mg/kg/injection, schedule: Q01DX001 (ip), vehicle: Klucel (hydroxypropylcellulose) (HPC) 100 % of control | endpoint: mean survival time, dose: 200.0 mg/kg/injection, schedule: Q01DX001 (ip), vehicle: Klucel (hydroxypropylcellulose) (HPC) 103 % of control | endpoint: mean survival time, dose: 400.0 mg/kg/injection, schedule: Q01DX001 (ip), vehicle: Klucel (hydroxypropylcellulose) (HPC) 93 % of control

CCN(CC)c1nc2c(c(=O)n(C)c(=O)n2C)n1CCCNCC(O)c1ccc(O)c(O)c1 (configuration not stated)
inactive: endpoint: mean survival time, dose: 12.5 mg/kg/injection, schedule: Q01DX005 (ip), vehicle: distilled water + Tween-80 96 % of control | endpoint: mean survival time, dose: 25.0 mg/kg/injection, schedule: Q01DX005 (ip), vehicle: distilled water + Tween-80 103 % of control | endpoint: mean survival time, dose: 50.0 mg/kg/injection, schedule: Q01DX005 (ip), vehicle: distilled water + Tween-80 97 % of control | endpoint: mean survival time, dose: 100.0 mg/kg/injection, schedule: Q01DX005 (ip), vehicle: distilled water + Tween-80 105 % of control | endpoint: mean survival time, dose: 200.0 mg/kg/injection, schedule: Q01DX005 (ip), vehicle: distilled water + Tween-80 100 % of control

O=S(=O)(NCCNS(=O)(=O)c1ccccc1)c1ccccc1
inactive: [4] 110 % of control | [5] 95 % of control | [6] 100 % of control

CC(=O)Nc1nc(Br)c2ccccc2c1-c1ccc(N(CCOS(C)(=O)=O)CCOS(C)(=O)=O)cc1
inactive: endpoint: mean survival time, dose: 12.5 mg/kg/injection, schedule: Q04DX003 (ip), vehicle: DMSO 105 % of control | endpoint: mean survival time, dose: 25.0 mg/kg/injection, schedule: Q04DX003 (ip), vehicle: DMSO 105 % of control | endpoint: mean survival time, dose: 50.0 mg/kg/injection, schedule: Q04DX003 (ip), vehicle: DMSO 110 % of control | endpoint: mean survival time, dose: 100.0 mg/kg/injection, schedule: Q04DX003 (ip), vehicle: DMSO 121 % of control
